The source made the active and inactive calls. No cut-off for these calls is given here.
How the values were obtained:
[1] = molecular target: ClpP1P2 (Mycobacterium tuberculosis (strain ATCC 25618 / H37Rv), UniProt P9WPC3+P9WPC5, H117A); assay: Inhibition of Mtb ClpP1 H117A mutant expressed in Escherichia coli BL21(DE3)
[2] = molecular target: ClpP1P2 (Mycobacterium tuberculosis (strain ATCC 25618 / H37Rv), UniProt P9WPC3+P9WPC5, E149K); assay: Inhibition of Mtb ClpP1 E149K mutant expressed in Escherichia coli BL21(DE3)
[3] = Selectivity index, ratio of IC50 for full-length Staphylococcus aureus ClpP complex/Escherichia coli ClpX delta N mutant (62 to 425 residues) expressed in Escherichia coli BL21(DE3) using FITC-casein as substrate to IC50 for N-terminal His6-SUMO-tagged Mtb ClpP1 (7 to 200 residues)/ClpP2 (13 to 214 residues) complex expressed in Escherichia coli BL21(DE3)
[4] = system: ClpP1P2 (Mycobacterium tuberculosis (strain ATCC 25618 / H37Rv)), P9WPC5+P9WPC3 [M75L]; assay: Inhibition of Mtb ClpP1 M75L mutant expressed in Escherichia coli BL21(DE3)
[5] = system: ClpP1P2 (Mycobacterium tuberculosis (strain ATCC 25618 / H37Rv)), P9WPC5+P9WPC3 [M95Q]; assay: Inhibition of Mtb ClpP1 M95Q mutant expressed in Escherichia coli BL21(DE3)
[6] = molecular target: ClpP1P2 (Mycobacterium tuberculosis (strain ATCC 25618 / H37Rv), UniProt P9WPC3+P9WPC5, E149R); assay: Inhibition of Mtb ClpP1 E149R mutant expressed in Escherichia coli BL21(DE3)
[7] = molecular target: ClpP1P2 (Mycobacterium tuberculosis (strain ATCC 25618 / H37Rv), UniProt P9WPC3+P9WPC5, S72T); assay: Inhibition of Mtb ClpP1 S72T mutant expressed in Escherichia coli BL21(DE3)
[8] = system: ClpP1P2 (Mycobacterium tuberculosis (strain ATCC 25618 / H37Rv)), P9WPC5+P9WPC3 [E149L]; assay: Inhibition of Mtb ClpP1 E149L mutant expressed in Escherichia coli BL21(DE3)
[9] = molecular target: ClpP1P2 (Mycobacterium tuberculosis (strain ATCC 25618 / H37Rv), UniProt P9WPC3+P9WPC5, I71F); assay: Inhibition of Mtb ClpP1 I71F mutant expressed in Escherichia coli BL21(DE3)
[10] = system: ClpP1P2 (Mycobacterium tuberculosis (strain ATCC 25618 / H37Rv)), P9WPC5+P9WPC3 [I146V]; assay: Inhibition of Mtb ClpP1 I146V mutant expressed in Escherichia coli BL21(DE3)
[11] = system: ClpP1P2 (Mycobacterium tuberculosis (strain ATCC 25618 / H37Rv)), P9WPC5+P9WPC3 [R119E]; assay: Inhibition of Mtb ClpP1 R119E mutant expressed in Escherichia coli BL21(DE3)
[12] = molecular target: ClpP1P2 (Mycobacterium tuberculosis (strain ATCC 25618 / H37Rv), UniProt P9WPC3+P9WPC5, E149Q); assay: Inhibition of Mtb ClpP1 E149Q mutant expressed in Escherichia coli BL21(DE3)
[13] = system: ClpP1P2 (Mycobacterium tuberculosis (strain ATCC 25618 / H37Rv)), P9WPC5+P9WPC3 [M75F]; assay: Inhibition of Mtb ClpP1 M75F mutant expressed in Escherichia coli BL21(DE3)
[14] = molecular target: ClpP1P2 (Mycobacterium tuberculosis (strain ATCC 25618 / H37Rv), UniProt P9WPC3+P9WPC5, Q142R); assay: Inhibition of Mtb ClpP1 Q142R mutant expressed in Escherichia coli BL21(DE3)
[15] = molecular target: ClpP1P2 (Mycobacterium tuberculosis (strain ATCC 25618 / H37Rv), UniProt P9WPC3+P9WPC5, W174I); assay: Inhibition of Mtb ClpP1 W174I mutant expressed in Escherichia coli BL21(DE3)
[16] = system: ClpP1P2 (Mycobacterium tuberculosis (strain ATCC 25618 / H37Rv)), P9WPC5+P9WPC3 [R119Q]; assay: Inhibition of Mtb ClpP1 R119Q mutant expressed in Escherichia coli BL21(DE3)
[17] = system: ClpP1P2 (Mycobacterium tuberculosis (strain ATCC 25618 / H37Rv)), P9WPC5+P9WPC3 [M95A]; assay: Inhibition of Mtb ClpP1 M95A mutant expressed in Escherichia coli BL21(DE3)
[18] = system: ClpP1P2 (Mycobacterium tuberculosis (strain ATCC 25618 / H37Rv)), P9WPC5+P9WPC3 [I146M]; assay: Inhibition of Mtb ClpP1 I146M mutant expressed in Escherichia coli BL21(DE3)
[19] = molecular target: ClpP1P2 (Mycobacterium tuberculosis (strain ATCC 25618 / H37Rv), UniProt P9WPC3+P9WPC5, M95L); assay: Inhibition of Mtb ClpP1 M95L mutant expressed in Escherichia coli BL21(DE3)
[20] = molecular target: ClpP1P2 (Mycobacterium tuberculosis (strain ATCC 25618 / H37Rv), UniProt P9WPC3+P9WPC5, Q142H); assay: Inhibition of Mtb ClpP1 Q142H mutant expressed in Escherichia coli BL21(DE3)
[21] = system: ClpP1P2 (Mycobacterium tuberculosis (strain ATCC 25618 / H37Rv)), P9WPC5+P9WPC3 [M95S]; assay: Inhibition of Mtb ClpP1 M95S mutant expressed in Escherichia coli BL21(DE3)
[22] = molecular target: ClpP1P2 (Mycobacterium tuberculosis (strain ATCC 25618 / H37Rv), UniProt P9WPC3+P9WPC5, M95W); assay: Inhibition of Mtb ClpP1 M95W mutant expressed in Escherichia coli BL21(DE3)
[23] = system: ClpP1P2 (Mycobacterium tuberculosis (strain ATCC 25618 / H37Rv)), P9WPC5+P9WPC3 [I71V]; assay: Inhibition of Mtb ClpP1 I71V mutant expressed in Escherichia coli BL21(DE3)
[24] = molecular target: ClpP1P2 (Mycobacterium tuberculosis (strain ATCC 25618 / H37Rv), UniProt P9WPC3+P9WPC5, R119S); assay: Inhibition of Mtb ClpP1 R119S mutant expressed in Escherichia coli BL21(DE3)
[25] = molecular target: ClpP1P2 (Mycobacterium tuberculosis (strain ATCC 25618 / H37Rv), UniProt P9WPC3+P9WPC5, I146L); assay: Inhibition of Mtb ClpP1 I146L mutant expressed in Escherichia coli BL21(DE3)
[26] = molecular target: ClpP1P2 (Mycobacterium tuberculosis (strain ATCC 25618 / H37Rv), UniProt P9WPC3+P9WPC5, W174A); assay: Inhibition of Mtb ClpP1 W174A mutant expressed in Escherichia coli BL21(DE3)
[27] = molecular target: ClpP1P2 (Mycobacterium tuberculosis (strain ATCC 25618 / H37Rv), UniProt P9WPC3+P9WPC5, I146T); assay: Inhibition of Mtb ClpP1 I146T mutant expressed in Escherichia coli BL21(DE3)
[28] = system: ClpP1P2 (Mycobacterium tuberculosis (strain ATCC 25618 / H37Rv)), P9WPC5+P9WPC3 [W174F]; assay: Inhibition of Mtb ClpP1 W174F mutant expressed in Escherichia coli BL21(DE3)
[29] = system: ClpP1P2 (Mycobacterium tuberculosis (strain ATCC 25618 / H37Rv)), P9WPC5+P9WPC3 [M75A]; assay: Inhibition of Mtb ClpP1 M75A mutant expressed in Escherichia coli BL21(DE3)
[30] = molecular target: ClpP1P2 (Mycobacterium tuberculosis (strain ATCC 25618 / H37Rv), UniProt P9WPC3+P9WPC5, H117N); assay: Inhibition of Mtb ClpP1 H117N mutant expressed in Escherichia coli BL21(DE3)
[31] = molecular target: ClpP1P2 (Mycobacterium tuberculosis (strain ATCC 25618 / H37Rv), UniProt P9WPC3+P9WPC5, E149T); assay: Inhibition of Mtb ClpP1 E149T mutant expressed in Escherichia coli BL21(DE3)

Compound: COc1cc2c(Oc3ccc4[nH]c(C)cc4c3F)ncnc2cc1OCCCN1CCCC1 [CEDIRANIB]
- IC50 [1]: 4.4 µM
- IC50 [2]: > 100 µM
- Ratio IC50 [3]: 9.6
- inhibition [4]: inactive
- inhibition [5]: inactive
- IC50 [6]: 41.8 µM
- IC50 [7]: > 54.5 µM
- inhibition [8]: inactive
- IC50 [9]: 3.4 µM
- inhibition [10]: inactive
- inhibition [11]: inactive
- IC50 [12]: 6.3 µM
- inhibition [13]: inactive
- IC50 [14]: 9.5 µM
- IC50 [15]: 12.8 µM
- inhibition [16]: inactive
- inhibition [17]: Active
- inhibition [18]: inactive
- IC50 [19]: 23.7 µM
- IC50 [20]: 14.4 µM
- inhibition [21]: inactive
- IC50 [22]: 7.5 µM
- inhibition [23]: inactive
- IC50 [24]: 42.2 µM
- IC50 [25]: 9.7 µM
- IC50 [26]: 20.2 µM
- IC50 [27]: 5.1 µM
- inhibition [28]: inactive
- inhibition [29]: Active
- IC50 [30]: > 50 µM
- IC50 [31]: 7.6 µM
